Source: the supplement of paper PMC10307832

Columns and labels:
Assay in all cases: relative viability (nuclei count vs DMSO), 5 days (fraction); higher = more cells survive
Erlotinib + Alpelisib = compound: C#Cc1cccc(Nc2ncnc3cc(OCCOC)c(OCCOC)cc23)c1 [Erlotinib] + Cc1nc(NC(=O)N2CCC[C@H]2C(N)=O)sc1-c1ccnc(C(C)(C)C(F)(F)F)c1 [Alpelisib] (partner 2 µM)
Procedure, shortened: (§1)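 Five library-drug doses in √10 steps were combined with a fixed anchor-drug dose, or a single drug was given alone, by pin tool to lung cancer cell lines in 1536-well plates the day after seeding. Nuclei were stained and counted after 5 days. Relative viability is the nuclei count in treated wells over that in vehicle wells, taken as the median of duplicate plates.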

AT9283 + Foretinib = compound: O=C(Nc1c[nH]nc1-c1nc2ccc(CN3CCOCC3)cc2[nH]1)NC1CC1 [AT9283] + COc1cc2c(Oc3ccc(NC(=O)C4(C(=O)Nc5ccc(F)cc5)CC4)cc3F)ccnc2cc1OCCCN1CCOCC1 [Foretinib] (partner 0.25 µM)
Procedure, shortened: as §1

AT9283 + AZD7762 = compound: O=C(Nc1c[nH]nc1-c1nc2ccc(CN3CCOCC3)cc2[nH]1)NC1CC1 [AT9283] + NC(=O)Nc1cc(-c2cccc(F)c2)sc1C(=O)N[C@H]1CCCNC1 [AZD7762] (partner 0.2 µM)
Procedure, shortened: as §1

AT9283 + Pemetrexed = compound: O=C(Nc1c[nH]nc1-c1nc2ccc(CN3CCOCC3)cc2[nH]1)NC1CC1 [AT9283] + Nc1nc2[nH]cc(CCc3ccc(C(=O)N[C@@H](CCC(=O)O)C(=O)O)cc3)c2c(=O)[nH]1 [Pemetrexed] (partner 0.2 µM)
Procedure, shortened: as §1

AT9283 + Vorinostat = compound: O=C(Nc1c[nH]nc1-c1nc2ccc(CN3CCOCC3)cc2[nH]1)NC1CC1 [AT9283] + O=C(CCCCCCC(=O)Nc1ccccc1)NO [Vorinostat] (partner 1 µM)
Procedure, shortened: as §1

Row | Cell Line | relative viability (Erlotinib + Alpelisib; first compound 0.02 µM) | relative viability (Erlotinib + Alpelisib; first compound 0.6325 µM) | relative viability (Erlotinib + Alpelisib; first compound 2 µM) | relative viability (AT9283 + Foretinib; first compound 0.003 µM) | relative viability (AT9283 + Foretinib; first compound 0.03 µM) | relative viability (AT9283 + Foretinib; first compound 0.09487 µM) | relative viability (AT9283 + Foretinib; first compound 0.3 µM) | relative viability (AT9283 + AZD7762; first compound 0.003 µM) | relative viability (AT9283 + AZD7762; first compound 0.03 µM) | relative viability (AT9283 + AZD7762; first compound 0.09487 µM) | relative viability (AT9283 + AZD7762; first compound 0.3 µM) | relative viability (AT9283 + Pemetrexed; first compound 0.003 µM) | relative viability (AT9283 + Pemetrexed; first compound 0.03 µM) | relative viability (AT9283 + Pemetrexed; first compound 0.09487 µM) | relative viability (AT9283 + Pemetrexed; first compound 0.3 µM) | relative viability (AT9283 + Vorinostat; first compound 0.003 µM) | relative viability (AT9283 + Vorinostat; first compound 0.03 µM) | relative viability (AT9283 + Vorinostat; first compound 0.09487 µM) | relative viability (AT9283 + Vorinostat; first compound 0.3 µM) | relative viability (Erlotinib + Alpelisib; first compound 0.2 µM)
1 | NCI-H2087 | 1.3 | 1.09 | 1.04 | 1.03 | 0.388 | 0.195 | 0.132 | 1.35 | 0.686 | 0.348 | 0.244 | 0.664 | 0.586 | 0.261 | 0.183 | 1.01 | 0.158 | 0.179 | 0.126 | 
2 | NCI-H2126 | 0.781 | 0.537 | 0.379 | 1.2 | 1.18 | 0.652 | 0.447 | 0.979 | 1.05 | 0.969 | 0.339 | 0.684 | 0.693 | 0.559 | 0.358 | 0.729 | 0.552 | 0.486 | 0.249 | 0.644
3 | NCI-H2170 | 0.895 | 0.578 | 0.308 | 1.06 | 0.897 | 0.261 | 0.21 | 0.794 | 0.485 | 0.162 | 0.153 | 0.464 | 0.234 | 0.2 | 0.132 | 0.765 | 0.514 | 0.272 | 0.13 | 0.745
4 | NCI-H2347 | 1.33 | 1.13 | 0.893 | 0.844 | 0.869 | 0.672 | 0.446 | 0.781 | 0.676 | 0.324 | 0.341 | 0.419 | 0.417 | 0.376 | 0.338 | 0.826 | 0.566 | 0.357 | 0.288 | 0.966
